Where “and” joins values, the source holds several entries; their conditions need not be identical. Equal values may be shown once. ± gives the expanded uncertainty stated by the source.
Conditions: 101.33 kPa, Liquid; for mass density: Vibrating tube method; for viscosity: Capillary tube (Ostwald / Ubbelohde) method

Row | SMILES | mass density (288.15 K) | viscosity (288.17 K) | viscosity (298.11 K) | mass density (298.15 K) | viscosity (308.05 K) | mass density (308.15 K) | viscosity (318.06 K) | mass density (318.15 K) | viscosity (328.08 K) | mass density (328.15 K) | further results
1 | CCCCCCCCCCCCCC[P+](CCCCCC)(CCCCCC)CCCCCC.N#C[N-]C#N [tetradecyl(trihexyl)phosphonium dicyanamide] | 903.4 ± 0.9 kg/m3 | 665.15 ± 30 mPa·s | 362.9 ± 13 mPa·s | 897.6 ± 0.9 kg/m3 | 210.07 ± 6.4 mPa·s | 891.9 ± 0.9 kg/m3 | 129.77 ± 3.3 mPa·s | 886.3 ± 0.9 kg/m3 | 83.81 ± 1.9 mPa·s | 880.7 ± 0.9 kg/m3 | viscosity (288.31 K): 664.13 ± 34 mPa·s; viscosity (298.07 K): 362.32 ± 16 mPa·s; viscosity (308.09 K): 210.09 ± 8.3 mPa·s; viscosity (318.01 K): 129.78 ± 4.6 mPa·s; viscosity (328.03 K): 83.95 ± 2.8 mPa·s
2 | CCCCn1cc[n+](C)c1.N#CN=C=[N-] [1-butyl-3-methylimidazolium dicyanamide] | 1066.9 ± 1.1 kg/m3 | 45.86 ± 0.96 mPa·s | 30.15 ± 0.63 mPa·s and 30.15 ± 0.93 mPa·s | 1060.5 ± 1.1 kg/m3 | 20.91 ± 0.44 mPa·s | 1054.2 ± 1.1 kg/m3 | 15.19 ± 0.32 mPa·s | 1047.9 ± 1.1 kg/m3 | 11.55 ± 0.24 mPa·s | 1041.7 ± 1.1 kg/m3 | viscosity (288.22 K): 45.82 ± 1.4 mPa·s; viscosity (308.12 K): 20.94 ± 0.64 mPa·s; viscosity (318.05 K): 15.21 ± 0.47 mPa·s; viscosity (328.05 K): 11.56 ± 0.36 mPa·s
3 | CCCCCC[n+]1ccn(C)c1.O=S(=O)([N-]S(=O)(=O)C(F)(F)F)C(F)(F)F | 1381.3 ± 1.5 kg/m3 | – | – | 1372.2 ± 1.5 kg/m3 | 44.87 ± 0.94 mPa·s | 1363 ± 1.5 kg/m3 | – | 1353.9 ± 1.4 kg/m3 | 21.92 ± 0.46 mPa·s and 21.92 ± 0.52 mPa·s | 1344.9 ± 1.4 kg/m3 | viscosity (288.19 K): 115.89 ± 2.8 mPa·s and 115.81 ± 3.1 mPa·s; viscosity (298.12 K): 69.47 ± 1.5 mPa·s and 69.62 ± 1.7 mPa·s; viscosity (308.11 K): 44.86 ± 1.1 mPa·s; viscosity (317.95 K): 30.77 ± 0.74 mPa·s; viscosity (318.07 K): 30.77 ± 0.65 mPa·s

— the NIST ThermoML archive (doi:10.1016/j.jct.2014.08.018)
